Series [1] has as its system nitrification in the soil. Briefly: Laboratory soil incubation, Templeton sandy loam with synthetic cow urine, nitrate-N. Particulars: for nitrate-N concentration in the soil compared with urine alone or urine+DMSO / reducing the nitrification rate compared with DCD: day 30; for reducing the nitrification rate compared with DCD: compound at 2 kg/ha vs DCD at 10 kg/ha; for % reduction by NI (nitrate-N): vs urine alone, 30 days; for Nitrate-N: 30 days of incubation. Here is the method: A Templeton sandy loam was used in this experiment. 500 g of soil (dry weight basis) was packed into a pottle. 50 mL of synthetic cow urine with an N concentration of 7 g N/L (comprising about 87% urea-N and 13% glycine-N) was applied to the soil (equivalent to 700 kg N/ha on weight basis, assuming bulk density of 1 g/cm^3 in the top 10 cm of soil). The 700 kg N/ha application was used to simulate the urine-N application rate under a typical dairy cow urine patch in a grazed pasture.
Control treatments also added to soil were: • urine alone (50 mL); • DMSO (equivalent to 0.9 mL/500 g soil)+urine (50 mL) to determine the effect of DMSO on nitrification rate; • water alone (50 mL) (simulating areas of the soil where no urine was deposited).
Pottles were covered with lids with breathing holes to allow for gas exchange during incubation. Pottles were incubated at 12° C. Soil moisture content was maintained at field capacity by adjusting on weight basis twice a week.
Soil samples were collected and were then thoroughly mixed and subsamples were extracted in a potassium chloride solution and analysed for mineral-N. Soil moisture content was also determined. Samples were taken at 30 days after the start of incubation. […]

Series [2] concerns nitrification. The series is described as follows: Table 1 summary: compounds found to work or not work as nitrification inhibitors, Inhib(%). Details: concentration or dose not given beside the values. Particulars: test and rate not given. Here is the method:
The phenotypic screening involved assessing the nitrification inhibition potency of the selected 5000 compounds against a key ammonia oxidizing bacterium responsible for ammonia oxidation in the soil, Nitrosomonas europaea, in 96-well microtiter plates. N. europaea cells were grown in the presence of an ammonium source, and the potential of putative nitrification inhibitors to inhibit the production of nitrite (NO2) was measured relative to untreated cells.
A summary of selected compounds initially found to either work or not work as nitrification inhibitors is detailed in Table 1 below.

Series [3] concerns N2O emissions in the soil. The series is described as follows: Field study of nitrous oxide emissions, static gas chamber method, urine-treated pasture soil. Here is the method: (§1) This study was conducted on the Lincoln University Research Dairy Farm, and the soil was a Templeton sandy loam with established perennial ryegrass (Lolium perenne) and white clover (Trifolium repens.) pasture. Metal rings (500 mm diameter and 200 mm height) were inserted into the ground. A water trough sitting on top of the metal rings allowed the placement of static chambers sitting on top of the water trough to provide a gas-tight seal to allow N2O gas sampling.
Synthetic urine with a nitrogen concentration of 7 g N/L was applied to the soil plots confined within the metal rings at the equivalent rate of 700 kg N/ha. […] The plots were irrigated with irrigation water in accordance with local dairy farming practice.
(§2) The gas chamber (500 mm diameter and 120 mm height) was constructed of a metal cylinder insulated with 2.5 cm thick polystyrene foam to avoid heating of the atmosphere in the chamber during sampling. During periods of N2O measurement, the edge of the chamber was placed inside the small water trough which was mounted around the top of each metal ring for gas sampling. At each sampling time, the chamber was placed on top of the soil ring for a total of 40 minutes, and 3 samples, 20 minutes apart, were taken using a syringe through a rubber septum on top of the gas chamber. Samples were taken twice weekly. Each sampling was carried out during the middle of the day between 12:00 h to 14:00 h (Di et al., 2007). The N2O concentration in the samples was analysed using a gas chromatograph (SRI8610C with an Electron Capture Detector (ECD) (SRI Instruments, USA) linked to a Gilson 222XL autosampler (Gilson, France)
as §1, with “To determine the effect of treating the soil with 2-ethynyl-5-methoxypyridine on nitrous oxide emissions under field soil conditions, a field study was conducted using the static gas chamber method. This” for “This”
Synthetic urine with a nitrogen concentration of 7 g N/L was applied to the soil plots confined within the metal rings at the equivalent rate of 700 kg N/ha. 196.25 mg or 39.2 mg of 2-ethynyl-5-methoxypyridine were dissolved in 2 mL DMSO, mixed with 1000 mL of water, and then sprayed on to the mini-plots at the rates of 196.25 mg/plot and 39.2 mg/plot, equivalent to 10 kg/ha and 2 kg/ha, respectively. The plots were irrigated with irrigation water in accordance with local dairy farming practice.
as §2, with “France).” for “France)”
To determine the effect of treating the soil with 3-ethynylpyridine 1-oxide on nitrous oxide emissions under field soil conditions, a field study was conducted using the static gas chamber method. […]

The test system of series [4] is nitrification in the soil. The series is described as follows: Soil column study with static gas chambers (Study 2-14): nitrate-N and N2O emissions. Particulars: 10 kg/ha sprayed to soil surface, soil column. Here is the method: To determine the effect of treating the soil with 4-Ethynylanisole on nitrification rate and nitrous oxide emissions, soil column studies with static gas chambers were conducted. The experiment was conducted in cylindrical PVC containers (Diameter=186 mm, Height=240 mm). The containers were filled with soil to half of the container's height (120 mm), leaving 120 mm headspace. The soil was Templeton sandy loam collected from Lincoln University Research Dairy Farm. It was screened using a 5 mm sieve and air-dried to the required moisture level and packed to bulk density of 1 g/cm3.
The experiment was conducted under controlled conditions. The temperature of the soil columns were maintained at around 12° C. by using a water bath to control the temperature.
The treatments included Control (Water), Control (animal urine), Control (urine+DMSO), Control (urine+DCD at 10 kg/ha) and urine+4-Ethynylanisole (10 kg/ha) in DMSO. Synthetic cow urine was applied at 700 kg N/ha (comprising about 87% urea-N and 13% glycine-N), and 4-Ethynylanisole was applied at 10 kg/ha. There were two sets of cores for each treatment, one set were fitted with static gas chambers with removable lids for nitrous oxide sampling, and the other set used for soil sampling. The urine was sprayed to the surface of the soil simulating urine deposition by a grazing animal; DMSO, or DCD or 4-Ethynylanisole mixed with DMSO was also sprayed onto the urine treated soils to simulate the treatment of urine patches. Nitrous oxide gas measurements followed these treatments—as is detailed further below.
For the soil columns that were set up for taking soil samples for analysis of mineral nitrogen, the different treatments were mixed with the soil for soil sampling. Soil moisture was adjusted to 100% field capacity (FC) and maintained between 80 and 100% FC over the duration of the experiment.
Nitrous oxide (N2O) gas sampling was conducted twice a week using the standard procedure (Di et al., 2007). Vials were evacuated prior to sampling. Three gas samples were taken with 20 minute intervals between each sampling. Sampling frequency was reduced to once a week when N2O fluxes decreased in intensity.
Soil sampling was conducted on Day 1, 7, 14, 30, and 60. The soil samples were analysed for mineral nitrogen.

For series [5] the following is noted: relative to table salt; cited from earlier work.
Series [6] concerns rats. Particulars: female rats; cited from earlier work.

This is an account of results in patent publication US11578013B2, “Nitrification inhibitors” (Lincoln University, priority 2020, dated 2023).

Each structure is given as a SMILES string.

Broadly, the melting point is the temperature of the solid-liquid transition. Molecule `C#Cc1cnc(OC)cn1` [2-Ethynyl-5-methoxypyrazine] gave a melting point of 41.3 to 42.7 °C. For the same molecule, in series [1] (1 kg/ha), the “nitrate-N concentration in the soil compared with urine alone or urine+DMSO” value is “lower nitrate-N concentrations”. Besides, in series [1] (2 kg/ha), the “nitrate-N concentration in the soil compared with urine alone or urine+DMSO” value is on record as “lower nitrate-N concentrations”.
`C#Cc1ncc(OC)cn1` [2-Ethynyl-5-methoxypyrimidine]: the melting point lay within 56.2 to 57.2 °C. The “nitrate-N concentration in the soil compared with urine alone or urine+DMSO” value in series [1] (1 kg/ha) is given as “lower nitrate-N concentrations”. Further, the “nitrate-N concentration in the soil compared with urine alone or urine+DMSO” value in series [1] (2 kg/ha) is reported as “significantly lower nitrate-N concentrations”. Also, the “reducing the nitrification rate compared with DCD” value in series [1] is listed as “more effective than DCD”.
With `C#Cc1ccc(OC)nn1` [3-Ethynyl-6-methoxypyridazine], the melting point was in the range of 51.7 to 53.1 °C. In series [1] (1 kg/ha), the “nitrate-N concentration in the soil compared with urine alone or urine+DMSO” value was “lower nitrate-N concentrations”. For the same molecule, the “nitrate-N concentration in the soil compared with urine alone or urine+DMSO” value in series [1] (2 kg/ha) is reported as “lower nitrate-N concentrations”.
For `C#Cc1ccc[n+]([O-])c1` [3-ethynylpyridine 1-oxide], in series [2], the “Inhib(%)” value was determined as 100%. Further, the “nitrate-N concentration in the soil compared with urine alone or urine+DMSO” value in series [1] (0.5 kg/ha) is given as “lower nitrate-N concentrations”; in series [1] (1 kg/ha) it was “lower nitrate-N concentrations”; in series [1] (2 kg/ha) it was “significantly lower nitrate-N concentrations”. Also, the “% reduction by NI (nitrate-N)” value in series [1] (0.5 kg/ha) is recorded as 43%; in series [1] (1 kg/ha) it was 96%; in series [1] (2 kg/ha), 97%. Also, in series [1], the “reducing the nitrification rate compared with DCD” value is on record as “more effective than DCD”. Moreover, the Nitrate-N in series [1] (urine + inhibitor at 0.5 kg/ha) was 224.4 mg N/kg soil; in series [1] (urine + inhibitor at 1 kg/ha), 20.8 mg N/kg soil; in series [1] (urine + inhibitor at 2 kg/ha), 8.2 mg N/kg soil. Besides, the “nitrous oxide reductions compared with DCD” value in series [3] (sprayed onto urine-treated pasture soil) is reported as “greater than that by DCD”. The values for the N2O emissions in series [3] (urine + inhibitor at 2 kg/ha) and in series [3] (urine + inhibitor at 10 kg/ha) were 3.6 kg N2O—N/ha and 0.79 kg N2O—N/ha, respectively.
On to `C#Cc1cnc(OC)nc1` [5-Ethynyl-2-methoxypyrimidine], for which the melting point lay in the range of 82.3 to 83.1 °C. For the same molecule, in series [2], the “Inhib(%)” value is given as 100%. In addition, the “nitrate-N concentration in the soil compared with urine alone or urine+DMSO” value in series [1] (1 kg/ha) is recorded as “lower nitrate-N concentrations”. For the same molecule, the “nitrate-N concentration in the soil compared with urine alone or urine+DMSO” value in series [1] (2 kg/ha) is given as “lower nitrate-N concentrations”.
Turning to `N#CNC(=N)N` [DCD, dicyandiamide], the “N2O—N emissions lower than urine alone control” value in series [4] is 43.4%. Besides, the toxicity rating in series [5] is recorded as 10 times less toxic than table salt. Further, the “oral LD50” value in series [6] is listed as “greater than 30,000 mg kg^−1 body weight”.
